From patent publication US20100062465A1, “Detection of Histone Deacetylase Inhibition” (priority 2006, published 2010)
Several values for one entry are separate records, joined by “and”; a condition that tells them apart may be missing. Equal entries are not always repeated. Structures can show the parent of a compound that is named as a salt.

Experiments:
[1] = tested on: HDAC; assay: Fluor de Lys fluorometric assay of HDAC activity in PC3 cells; type: cell-based, human; conditions: for HDAC activity (relative to controls): 24 h
Procedure: Briefly 20×10^3 cells/well were seeded in 96 well plates and incubated for 24 h with (a) 1 mM BLT (b) FSAHA at 2, 5, 10 μM (c) SAHA at 2, 5, 10 μM (d) FSAHA at 2, 5, 7, 8, 9, 10 μM in the presence of 1 mM BLT (e) FSAHA at 2, 5, 7, 8, 9, 10 μM in the presence of vehicle (DMSO). The Fluor de Lys substrate was then added for 1 h, medium removed, cells rinsed with PBS and incubated for 10 minutes with the Fluor-de-Lys developer, and fluorescence read at 460 nm using the Tecan microplate reader as above. Results were normalized to cell density as determined using the WST-1 assay in the same 96 well plate.

[2] = molecular target: T1, recombinant HDAC8 (Homo sapiens, UniProt Q9BY41); assay: 19F MRS study of BLT cleavage by recombinant HDAC8; type: biochemical; conditions: 0.6 mM BLT, 28U HDAC-8
T1 construct: purchased Biomol
T1 sequence (Q9BY41 1-377): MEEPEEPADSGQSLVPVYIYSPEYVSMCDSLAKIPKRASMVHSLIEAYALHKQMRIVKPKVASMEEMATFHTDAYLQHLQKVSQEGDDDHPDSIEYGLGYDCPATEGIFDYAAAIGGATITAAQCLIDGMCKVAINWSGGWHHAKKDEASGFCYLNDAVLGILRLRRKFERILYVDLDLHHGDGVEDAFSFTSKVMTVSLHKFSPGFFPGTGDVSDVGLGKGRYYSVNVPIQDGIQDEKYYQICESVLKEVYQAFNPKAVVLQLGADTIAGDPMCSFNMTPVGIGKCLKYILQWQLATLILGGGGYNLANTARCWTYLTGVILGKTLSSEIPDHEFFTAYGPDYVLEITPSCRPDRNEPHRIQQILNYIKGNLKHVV
Procedure: To confirm that MRS can be used to monitor cleavage of the HDAC substrate, 0.6 mM BLT (Advance Chem-Tech, KY USA) was incubated alone or with 28U recombinant HDAC-8 (Biomol PA) in a total volume of 500 μl HDAC assay buffer (Biomol PA. USA, composed of 25 mM Tris/Cl, 137 mM NaCl, 2.7 mM KCl, 1 mM MgCl2 and formulated to maintain HDAC activity). ^19F MRS was used to monitor the decrease in BLT and buildup of the cleavage product trifluoroacetate (TFA) by acquiring ^1H decoupled spectra at 10 min intervals on an Avance DPX 300 Bruker spectrometer (Bruker Biospin, Germany) using a 30 deg. flip angle, 3 s relaxation delay and 128 scans. A sealed insert containing C6F6 served as a quantification and chemical shift reference (−164.9 ppm relative to CFCl3).

[3] = In vivo toxicity of BLT after intraperitoneal injection; conditions: intraperitoneal 100 mg/kg once a week on three subsequent weeks
[4] = tested on: subcutaneous PC3 tumors; assay: In vivo 19F MRS of BLT in subcutaneous PC3 tumors; conditions: intraperitoneal 100 mg/kg, 4.7 T
Procedure: As expected, the TFA peak could not be easily resolved in our preliminary in vivo studies. Intratumoral BLT levels may be higher in HDACI-treated tumors compared to controls, and therefore tumoral BLT levels may be used to assess HDAC activity in vivo. Downstream metabolic biomarkers also may be assessed in our preliminary studies. We were able to acquire a ^31P spectrum from PC3 subcutaneous tumors in 30 minutes providing a means for monitoring PC levels. This is consistent with previous studies in which an increase in PC could be monitored as an indicator of response to 17AAG treatment. ^1H MRS, with its greater sensitivity compared to ^31P, could also be used to monitor the total choline signal as a downstream metabolic marker of response to HDAC inhibition.

[5] = Solubility in growth medium; type: physicochemical; conditions: dissolved in DMSO first
Procedure: Note that controls were treated with DMSO in order to clearly identify effects which are due to the compound being investigated rather than its vehicle (DMSO). FSAHA dose was based on previous findings (Butler L M, Agus D B, Scher H I, et al. Suberoylanilide hydroxamic acid, an inhibitor of histone deacetylase, suppresses the growth of prostate cancer cells in vitro and in vivo. Cancer Res 2000 September 15;60(18):5165-70).

[6] = tested on: Hsp70; assay: Western blot analysis of protein levels; type: cell-based, human; conditions: PC3 cells, 10 μM FSAHA in the presence of 1 mM BLT
Procedure: (§1) PC3 cells were lysed using cell lysis buffer (0.1% NP-40, 50 mM HEPES (pH 7.4), 250 mM NaCl, 1 mM dithiothreitol, 1 mM EDTA, 1 mM NaF, 10 mM β-glycerophosphate, 0.1 mM sodium orthovanadate, 1 μl/ml of protease inhibitor cocktail set III (Calbiochem, USA) and 1 mM phenylmethylsulfonyl fluoride). Lysates were centrifuged at 12,000 rpm for 10 min (4° C.), the protein supernatant collected and total protein concentrations determined using Biorad DC Protein assay reagents (Biorad, CA, USA). Proteins were separated by sodium do-decyl sulfate-polyacrylamide gel electrophoresis using 10% gels and transferred electrophoretically to 0.45 μm Nitrocellulose membranes. Membranes were blocked in blocking buffer containing 5% non-fat dry milk in Tris buffered saline (pH 7.6) and 0.1% Tween-20 and incubated overnight at 4° C. with primary antibodies as follows. c-Raf, 1:1000, (Cell Signaling Technology (CST), MA, USA), Cdk4, 1:2000 (CST, MA, USA), Hsp70, 1:2000 (Stressgen, Canada) and GAPDH, 1:5000 (Stressgen, Canada). This was followed by 1 hour incubation with horseradish peroxidase-conjugated secondary anti-rabbit (CST MA, USA) and anti-mouse (CST, MA, USA) antibodies at dilutions of 1:1000 and 1:2000 respectively. Membranes were […] with enhanced chemiluminescence reagents (LumiGLO & Peroxide, CST MA. USA) for 1 minute and exposed to hyperfilm (Amersham Biosciences, USA), which was developed on a Konica SRX-101 automatic developer (Konica, Tokyo, Japan).

[7] = tested on: c-Raf-1; assay: Western blot analysis of protein levels; type: cell-based, human; conditions: PC3 cells, 10 μM FSAHA in the presence of 1 mM BLT
Procedure: as §1

[8] = tested on: cdk4; assay: Western blot analysis of protein levels; type: cell-based, human; conditions: PC3 cells, 10 μM FSAHA in the presence of 1 mM BLT
Procedure: as §1

## CC(C)(C)OC(=O)N[C@@H](CCCCNC(=O)C(F)(F)F)C(=O)O [BLT, Boc-Lys-TFA-OH]
[1]; 24 hours, 1 mM
  HDAC activity levels relative to DMSO-treated controls: 102±9%
[2]
  Cleavage by recombinant HDAC8 monitored by 19F MRS: substrate of HDAC8
[3]
  Toxicity to the animal: no detectable toxicity
[4]
  Time the BLT signal remained detectable within the tumor region: over 2 hours
[4]; temporal resolution 5 minutes
  MRS detectability in tumor: MRS visible BLT signal
[5]
  Solubility in growth medium: low solubility

## O=C(CCCCCCC(=O)Nc1ccc(F)cc1)NO [FSAHA, 4-Fluorosuberanilohydroxamic acid]
[1]; 2 μM
  HDAC activity (relative to controls): 93±16%
[1]; 2 μM in the presence of 1 mM BLT
  HDAC activity (relative to controls): 88±12%
[1]; 5 μM
  HDAC activity (relative to controls): 58±14%
[1]; 5 μM in the presence of 1 mM BLT
  HDAC activity (relative to controls): 69±9%
[1]; 10 μM
  HDAC activity (relative to controls): 41±8%
[1]; 10 μM in the presence of 1 mM BLT
  HDAC activity (relative to controls): 53±5% and 53%
[6]
  Induction of Hsp70 (Western blot): not observed
[7]
  c-Raf-1 protein level (Western blot): depletion
[8]
  cdk4 protein level (Western blot): depletion
